Key:
[1] = system: TG3 immunoreactivity in OKA treated MSN1a cells; assay: MSN1a cell culture model, ELISA with TG3 antibody, okadaic acid treated cells; type: cell-based, human; details: 1 μM OKA, 2 hrs at 37° C., read-out: IC50 for inhibition of TG3 immunoreactivity in OKA treated MSN1a cells
How it was run: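 Human MSN1a neuroblastoma cells (2×10^4/well) in KRH pH 7.4 were exposed 2 h at 37 °C to 1 μM okadaic acid plus 0–64 μM compound (0.26% DMSO final). Lysates were coated onto ELISA plates and probed with TG3 and an alkaline phosphatase secondary. Absorbance was read at 405 nm with p-nitrophenyl phosphate substrate.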

[2] = system: microtubule cytoskeleton of human CG neuroblastoma cells; assay: Antimicrotubule activity, tubulin immunofluorescence microscopy; type: cell-based; details: 2 hr at 37° C., read-out: Concentration where microtubule destabilization occurs
Procedure: The compounds of the invention according to formula I are effective in destabilizing microtubules, thus are useful in treating certain neoplastic diseases. Indirect immunofluorescence microscopy using the monoclonal antibodies to tubulin is used herein to determine the activity of the compounds of this invention in promoting depolymerization of the microtubule cytoskeleton in cultured cells. The following assay was employed.
Cultured human CG neuroblastoma cells were seeded 1:3 from confluent cultures onto sterile 11×22 mm coverslips in 6 well tissue culture plates 16 hr prior to treatment. The following day, the tissue culture medium is removed and the cells are exposed to various concentrations of compounds of this invention in Krebs Ringer Hepes (KRH) buffer containing a final concentration of 0.5% DMSO as carrier. Incubations were performed at 37° C. in a humidified 5% CO2 atmosphere for 2 hr. After incubation, the cells were fixed in 3% TEM grade formaldehyde in PBS for 45 min at room temperature.
To visualize the effects of the compounds of the invention on the microtubule cytoskeleton, the cells were processed for tubulin immunofluorescence. Briefly, the cells were permeabilized in 0.5% Triton-X 100 in PBS for 5 min. The cells were washed 2× with PBS and aldehydes reduced using 0.5 mg/ml NaBH4 in PBS for 5 min. Subsequently, the cells were blocked for 10 min in 1.5% BSA and 1.5% nonfat dry milk in PBS (blocking solution, BS) for 10 min. The cells were then incubated for 30 min at 37° C. with the monoclonal antibody Tu27B which recognizes b-tubulin (dilution 1:20 in BS). Subsequently, the cells were washed 2× in PBS and once in BS. The cells were then incubated for 30 min at 37° C. with sheep antimouse IgG conjugated to FITC. After incubation, the cells were washed 2× in PBS and once in BS and incubated for 30 min at 37° C. with rabbit antisheep IgG conjugated to FITC. The cells were rinsed in PBS, counterstained with Hoechst 33285 in PBS (1 μg/ml), and rinsed in PBS. The coverslips were mounted in 9:1 glycerol:PBS containing 1 mg/ml p-phenylenediamine and sealed with nail polish.
The cells were viewed using a Jenalumar epifluorescence microscope equipped with the proper filters for Fluorescein Isothiocyanate (FITC) excitation and emission. Lack of effect of a compound is evidenced by the presence of an intact microtubule network in interphase cells, or a mitotic spindle in dividing cells. Antineoplastic compounds of the invention at effective doses result in the disappearance of microtubules in both interphase and mitotic cells.

Which IC50 [1] does the source give for `Cl.Cl.O=C(CCN1CCN(Cc2ccccc2)CC1)c1ccc(F)c2ccccc12` [Example 21, 1-(4″-Fluoronaphth-1″-yl)-3-(4′-benzyl-1′-piperazinyl)-1-propanone dihydrochloride] here?
The IC50 was 6.6 µM.

What about the minimal effective concentration [2] of the same molecule?
Its minimal effective concentration is 20 µM.
